Results reported in ChEMBL document CHEMBL4130627, “Prodrugs of the Phosphoribosylated Forms of Hydroxypyrazinecarboxamide Pseudobase T-705 and Its De-Fluoro Analogue T-1105 as Potent Influenza Virus Inhibitors” (J Med Chem, 2018).
Calls of active or inactive are those of the source. The rule behind the calls is not given here.

Legend:
Influenza A virus [1] = type: functional, organism-based; settings: Influenza A virus (A/X-31(H3N2)); MDCK; 25 uM
Influenza B virus [2] = assay: microbe, parasite or virus in culture; settings: Ned/537/05, MDCK, 72 h
Description: Antiviral activity against Influenza virus B/Ned/537/05 infected in MDCK cells assessed as reduction in viral replication at 3 days post infection by formazan-based MTS assay

MDCK [3] = assay: Prodrug activation in MDCK cells assessed as T-1105-RMP formation at 714 uM after 19 hrs by RP-HPLC-UV analysis; type: cell-based, Canis lupus familiaris; settings: dog
[4] = Cytotoxicity against HGPRT deficient 6-thioguanine-resistant MDCK cells assessed as change in cell morphology after 3 days by microscopic analysis; type: cell-based, Canis lupus familiaris; settings: dog
MDCK [5] = assay: Prodrug activation in MDCK cells assessed as parent compound remaining at 714 uM after 19 hrs by RP-HPLC-UV analysis; type: cell-based, Canis lupus familiaris; settings: dog
[6] = Cytotoxicity against MDCK cells assessed as reduction in cell viability after 3 days by formazan-based MTS assay; design: species or system Canis lupus familiaris; settings: dog
Influenza A virus [7] = type: functional, organism-based; settings: Influenza A virus (A/X-31(H3N2)); MDCK; 25 uM; remark: listed apart in the source
Influenza B virus [8] = assay: microbe, parasite or virus in culture; settings: Ned/537/05, MDCK, 72 h; remark: listed apart in the source
Description: Antiviral activity against Influenza virus B/Ned/537/05 infected in MDCK cells assessed as reduction in viral replication at 3 days post infection by microscopic analysis

MDCK [9] = type: cell-based, Canis lupus familiaris; settings: dog, 714 µM
Influenza A virus [10] = type: functional, organism-based; settings: Influenza A virus (A/X-31(H3N2)); MDCK; 25 uM; remark: listed apart in the source
Influenza A virus [11] = type: functional, organism-based; settings: Influenza A virus (A/X-31(H3N2)); MDCK; 25 uM; remark: listed apart in the source
Influenza A virus [12] = type: functional, organism-based; settings: Influenza A virus (A/X-31(H3N2)); MDCK; 12 to 50 uM
Influenza A virus [13] = type: functional, organism-based; settings: Influenza A virus (A/X-31(H3N2)); MDCK; 12 to 50 uM; remark: listed apart in the source
Influenza A virus [14] = assay: microbe, parasite or virus in culture; settings: MDCK, 72 h
Description: Antiviral activity against Influenza virus A/X-31 infected in MDCK cells assessed as reduction in viral replication at 3 days post infection by microscopic analysis

[15] = Cytotoxicity against MDCK cells assessed as change in cell morphology after 3 days by microscopic analysis; type: cell-based, Canis lupus familiaris; settings: dog
[16] = tested on: unidentified influenza virus; assay: Antiviral activity against Influenza virus infected in human A549 cells; type: functional
Influenza A virus [17] = type: functional, organism-based; settings: Influenza A virus (A/X-31(H3N2)); MDCK; 250 uM
Influenza A virus [18] = assay: microbe, parasite or virus in culture; settings: MDCK, 72 h; remark: listed apart in the source
Description: Antiviral activity against Influenza virus A/X-31 infected in MDCK cells assessed as reduction in viral replication at 3 days post infection by formazan-based MTS assay

Influenza A virus [19] = type: functional, organism-based; settings: Influenza A virus (A/X-31(H3N2)); MDCK; 250 uM; remark: listed apart in the source
MDCK [20] = assay: Prodrug activation in MDCK cells assessed as T-1105-RDP formation at 500 uM after 2 hrs by RP-HPLC-UV analysis; type: cell-based, Canis lupus familiaris; settings: dog
[21] = Inhibition of Influenza virus B/Ned/537/05 RNA dependent RNA polymerase using ApG primer [adenyl (3'-5') guanosine] and [8-3H]GTP after 1 hr by filter-based assay
[22] = Inhibition of Influenza virus A/X-31 RNA dependent RNA polymerase using ApG primer [adenyl (3'-5') guanosine] and [8-3H]GTP after 1 hr by filter-based assay; design: species or system Influenza A virus (A/X-31(H3N2))
A549 = assay: Cytotoxicity against human A549 cells assessed as reduction in cell viability at 100 uM; type: cell-based; settings: a549, 100 µM
[23] = Drug metabolism in MDCK cells assessed as 4-((((((2R,3S,4R,5R)-5-(3-carbamoyl-2-oxopyrazin-1(2H)-yl)-3,4-dihydroxytetrahydrofuran-2-yl)methoxy)(hydroxy)phosphoryloxy)(hydroxy)phosphoryloxy)methyl)phenyl decanoate formation at 450 uM up to 4 hrs by RP-HPLC-UV analysis; type: ADME, cell-based, Canis lupus familiaris; settings: dog
[24] = tested on: unidentified influenza virus; assay: Potency index, ratio of T-1105 EC99 to compound EC99 for Influenza virus infected in human A549 cells; type: functional
[25] = Drug metabolism in MDCK cells assessed as T-1105-RDP formation at 450 uM up to 4 hrs by RP-HPLC-UV analysis; type: ADME, cell-based, Canis lupus familiaris; settings: dog
MDCK [26] = assay: Prodrug activation in MDCK cells assessed as T-1105-RMP formation at 450 uM up to 4 hrs by RP-HPLC-UV analysis; type: cell-based, Canis lupus familiaris; settings: dog
MDCK [27] = type: cell-based, Canis lupus familiaris; settings: dog, 2 h, 500 µM
Liver carboxylesterase [28] = target: T1, Liver carboxylesterase (Sus scrofa, UniProt Q29550); assay: Prodrug activation assessed as pig liver esterase mediated metabolite formation at 450 uM up to 150 mins by RP-HPLC-UV analysis; type: ADME; settings: isolated protein, 2.5 h
T1 sequence (Q29550 whole entry): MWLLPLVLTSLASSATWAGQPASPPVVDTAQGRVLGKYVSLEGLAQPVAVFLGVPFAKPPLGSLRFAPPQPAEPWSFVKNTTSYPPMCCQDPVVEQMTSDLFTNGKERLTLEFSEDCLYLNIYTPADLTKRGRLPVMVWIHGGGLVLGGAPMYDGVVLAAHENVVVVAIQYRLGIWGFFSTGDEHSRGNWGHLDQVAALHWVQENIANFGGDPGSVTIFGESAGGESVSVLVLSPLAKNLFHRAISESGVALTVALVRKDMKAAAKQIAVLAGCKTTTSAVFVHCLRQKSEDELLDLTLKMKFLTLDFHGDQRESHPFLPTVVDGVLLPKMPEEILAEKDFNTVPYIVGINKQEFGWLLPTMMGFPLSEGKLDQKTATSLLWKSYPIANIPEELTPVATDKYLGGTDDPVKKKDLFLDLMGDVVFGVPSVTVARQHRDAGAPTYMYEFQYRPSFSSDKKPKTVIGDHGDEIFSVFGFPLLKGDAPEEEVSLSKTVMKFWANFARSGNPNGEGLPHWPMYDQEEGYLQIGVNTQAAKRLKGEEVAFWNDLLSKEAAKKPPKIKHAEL

Influenza A virus [29] = type: functional, organism-based; settings: Influenza A virus (A/X-31(H3N2)); MDCK; 12 to 25 uM
[30] = Prodrug activation in phosphate buffer at pH 7.3 assessed as half life for T-1105-RDP formation at 450 uM after 24 to 120 hrs by RP-HPLC-UV analysis; type: physicochemical; settings: pH 7.3, 450 µM
Influenza A virus [31] = type: functional, organism-based; settings: Influenza A virus (A/X-31(H3N2)); MDCK; 6 uM
MDCK [32] = assay: Prodrug activation in MDCK cells assessed as T-1105-RTP formation at 450 uM up to 4 hrs by RP-HPLC-UV analysis; type: cell-based, Canis lupus familiaris; settings: dog
Influenza A virus [33] = type: functional, organism-based; settings: Influenza A virus (A/X-31(H3N2)); MDCK; 12 to 25 uM; remark: listed apart in the source
Liver carboxylesterase [34] = target: T1, Liver carboxylesterase; assay: Drug metabolism assessed as pig liver esterase mediated 4-((((((2R,3S,4R,5R)-5-(3-carbamoyl-2-oxopyrazin-1(2H)-yl)-3,4-dihydroxytetrahydrofuran-2-yl)methoxy)(hydroxy)phosphoryloxy)(hydroxy)phosphoryloxy)methyl)phenyl decanoate formation at 450 uM after 150 mins by RP-HPLC-UV analysis; type: ADME; settings: isolated protein, 2.5 h

NC(=O)c1nccnc1O
inhibition (Influenza A virus [1]): inactive
EC50 (Influenza B virus [2]): 2100 nM
Drug metabolism (MDCK [3]): Metabolite_Detected
MCC at 72 h [4]: > 250 µM
Stability (MDCK [5]): 10%
CC50 at 72 h [6]: > 250000 nM
inhibition (Influenza A virus [7]): inactive
EC50 (Influenza B virus [8]): 2800 nM
Drug metabolism (MDCK [9]): Metabolite_Notdetected
inhibition (Influenza A virus [10]): Active
inhibition (Influenza A virus [11]): Active
inhibition (Influenza A virus [12]): Active
inhibition (Influenza A virus [13]): Active
EC50 (Influenza A virus [14]): 6400 nM
MCC at 72 h [15]: > 250 µM
EC99 [16]: 134 µM
inhibition (Influenza A virus [17]): Active
EC50 (Influenza A virus [18]): 5400 nM
inhibition (Influenza A virus [19]): Active

CCCCCCCCCC(=O)Oc1ccc(COP(=O)(OCc2ccc(OC(=O)CCCCCCCCC)cc2)OP(=O)(O)OC[C@H]2O[C@@H](n3ccnc(C(N)=O)c3=O)[C@H](O)[C@@H]2O)cc1.CCN(CC)CC
inhibition (Influenza A virus [1]): inactive
EC50 (Influenza B virus [2]): 560 nM
Drug metabolism (MDCK [20]): Metabolite_Detected
IC50 [21]: 49000 to 126000 nM
IC50 [22]: 49000 to 126000 nM
MCC at 72 h [4]: 22 µM
Activity (A549): Non-Toxic
CC50 at 72 h [6]: > 100000 nM
Drug metabolism [23]: Metabolite_Detected
inhibition (Influenza A virus [7]): inactive
Ratio [24]: 2
EC50 (Influenza B virus [8]): 810 nM
Drug metabolism [25]: Metabolite_Detected
inhibition (Influenza A virus [10]): Active
Drug metabolism (MDCK [26]): Metabolite_Detected
Drug metabolism (MDCK [27]): Metabolite_Detected
Drug metabolism (Liver carboxylesterase [28]): Metabolite_Detected
inhibition (Influenza A virus [29]): Active
t1/2 [30]: 30 h
inhibition (Influenza A virus [31]): Active
Drug metabolism (MDCK [32]): Metabolite_Notdetected
EC50 (Influenza A virus [14]): 1300 nM
MCC at 72 h [15]: 37 µM
EC99 [16]: 72 µM
EC50 (Influenza A virus [18]): 1000 nM
inhibition (Influenza A virus [33]): Active
Drug metabolism (Liver carboxylesterase [34]): Metabolite_Detected
